Data on five compounds can be found in article PMC9189076 (Oncogene, 2022).

Data set [1] addresses T1, WDR5 (Homo sapiens, UniProt P61964). As to the kind of experiment: Isothermal titration calorimetry. It is filed as binding. The settings on record: for binding to WDR5 (ITC, in words): MS169 compared to MS40. For orientation: ITC needs no label: the signal is the heat of the interaction.
The target in data set [2] is CRBN's C-terminal thalidomide binding domain (CRBN-TBD) (Homo sapiens, UniProt Q96SW2). As to the kind of experiment: ITC, binding to CRBN thalidomide-binding domain.
CRBN's C-terminal thalidomide binding domain (CRBN-TBD), sequence (Q96SW2 318-426 limits assumed): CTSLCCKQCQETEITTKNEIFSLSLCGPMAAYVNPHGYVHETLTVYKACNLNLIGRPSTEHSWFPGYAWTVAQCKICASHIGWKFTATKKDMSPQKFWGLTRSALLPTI
Data set [3] deals with H3K4me2. As to the kind of experiment: Global histone methylation immunoblotting in MV4. To be noted: MV4;11 cells, 0.5 μM, 4 days. It is filed as cell-based, human.
Data set [4] concerns MV4;11 cells. As to the kind of experiment: RNA-seq transcriptomic profiling in MV4. It is filed as cell-based, human.
In data set [5] the target is T1, WDR5. The settings on record: five lines of MLL-r AML and eight lines of breast cancer, 18 h.
The subject of data set [6] is IKZF1 and IKZF3. As to the kind of experiment: IKZF1/IKZF3 degradation by immunoblotting in cells. It is filed as cell-based, human. The settings on record: MV4;11, RS4;11 and other cell lines. (In general: A western blot detects proteins with antibodies after separation by electrophoresis.)
In data set [7] the test system is MLL-AF9 + AML PDX tumors. As to the kind of experiment: MLL-AF9+ AML PDX subcutaneous xenograft efficacy. It is filed as in vivo, NSG-SGM3 mice. The settings on record: i.p. once a day, 5 days per week; MS40 100 mg/kg, MS169 34 mg/kg, MS40N2 100 mg/kg.
A short description of data set [8]: Compound concentrations in plasma and tumor of PDX-bearing mice. It is filed as in vivo, NSG-SGM3 mice. To be noted: two hours post last dose; MS40 100 mg/kg, MS169 34 mg/kg, MS40N2 100 mg/kg.
For data set [9], the target named is VHL–Elongin C–Elongin B ternary complex (VCB) (Homo sapiens, UniProt P40337). As to the kind of experiment: ITC, binding to VHL E3 ligase complex. To be noted: compared to MS40.
VHL–Elongin C–Elongin B ternary complex (VCB), sequence (P40337 54-213 limits assumed): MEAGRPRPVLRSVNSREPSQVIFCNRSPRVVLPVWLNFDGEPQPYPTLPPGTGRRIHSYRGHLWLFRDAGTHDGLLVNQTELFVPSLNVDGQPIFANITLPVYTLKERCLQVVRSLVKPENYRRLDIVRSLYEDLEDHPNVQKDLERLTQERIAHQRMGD
VHL–Elongin C–Elongin B ternary complex (VCB), sequence (Q15369 17-112 partner limits assumed): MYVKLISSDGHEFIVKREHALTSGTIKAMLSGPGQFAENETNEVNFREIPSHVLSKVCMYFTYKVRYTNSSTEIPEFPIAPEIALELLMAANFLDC
VHL–Elongin C–Elongin B ternary complex (VCB), sequence (Q15370 1-104 partner limits assumed): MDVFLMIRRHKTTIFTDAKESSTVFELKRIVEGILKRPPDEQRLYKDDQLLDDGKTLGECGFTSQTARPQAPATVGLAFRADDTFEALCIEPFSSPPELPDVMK
The target of data set [10] is LIMD1 (Homo sapiens, UniProt Q9UGP4). As to the kind of experiment: LIMD1 degradation by immunoblotting in MV4. It is filed as cell-based. To be noted: MV4;11 and RS4;11 cells, 0.5 μM, 18 h.
LIMD1, sequence (Q9UGP4 whole entry): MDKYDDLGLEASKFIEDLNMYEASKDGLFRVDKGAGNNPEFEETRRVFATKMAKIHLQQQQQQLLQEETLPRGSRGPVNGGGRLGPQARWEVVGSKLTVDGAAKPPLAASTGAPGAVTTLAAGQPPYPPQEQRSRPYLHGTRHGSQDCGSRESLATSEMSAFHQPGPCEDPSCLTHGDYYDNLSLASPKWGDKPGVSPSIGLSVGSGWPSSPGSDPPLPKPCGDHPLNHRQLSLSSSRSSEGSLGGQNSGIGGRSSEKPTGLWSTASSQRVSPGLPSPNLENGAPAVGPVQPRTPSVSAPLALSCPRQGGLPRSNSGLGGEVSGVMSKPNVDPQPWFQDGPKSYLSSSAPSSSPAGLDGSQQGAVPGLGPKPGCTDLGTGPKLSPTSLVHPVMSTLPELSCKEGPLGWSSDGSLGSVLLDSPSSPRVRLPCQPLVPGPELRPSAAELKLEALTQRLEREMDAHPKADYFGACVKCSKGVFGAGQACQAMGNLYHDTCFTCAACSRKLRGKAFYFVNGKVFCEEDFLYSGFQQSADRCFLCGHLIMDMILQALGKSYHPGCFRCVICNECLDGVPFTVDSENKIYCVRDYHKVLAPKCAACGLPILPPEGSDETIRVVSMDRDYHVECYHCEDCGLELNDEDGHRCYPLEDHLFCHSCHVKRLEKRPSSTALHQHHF
The subject of data set [11] is BT549 and SUM149 breast cancer cells. As to the kind of experiment: Anti-proliferative effect in breast cancer cells. It is filed as cell-based. The settings on record: MS40 relative to MS40N1 and OICR-9429.
Data set [12] has as its target CRBN-TBD. To be noted: read-out: KD, affinity to CRBN-TBD; cited from earlier work.

What is called Kd is a measure of binding affinity in units of concentration.

Take `CN1CCN(c2ccc(-c3cccc(CN4CCN(CCNC(=O)CCCCCCCNc5cccc6c5C(=O)N(C5CCC(=O)N(C)C5=O)C6=O)CC4)c3)cc2NC(=O)c2c[nH]c(=O)cc2C(F)(F)F)CC1` (stereo not shown) [MS40N1]: the “fold lower binding affinity to WDR5 compared to OICR-9429” value in data set [1] (ITC) was 4 fold. For the same compound, in [1] (read-out: KD, binding affinity to WDR5, ITC, 25 °C, mean ± SD of three experiments), the Kd came out at 0.13 ± 0.001 µM. The “KD, affinity to CRBN-TBD” value in data set [2] (25 °C, mean ± SD) is “no binding was observed”. The “global H3K4me2 level” value in data set [3] was “but not OICR-9429 or MS40N1”. Further, in data set [4], the “gene-expression changes compared to DMSO (RNA-seq)” value was “did not result in significant gene-expression changes”. In addition, the “WDR5 degradation in panel of cell lines” value in data set [5] was “did not induce notable WDR5 reduction”.
Regarding `O=C(CCCCCCCNc1cccc2c1C(=O)N(C1CCC(=O)NC1=O)C2=O)NCCN1CCN(Cc2cccc(-c3ccc(N4CCOCC4)c(NC(=O)c4c[nH]c(=O)cc4C(F)(F)F)c3)c2)CC1` (stereo not shown) [MS40N2], the “binding to WDR5 (ITC, in words)” value in data set [1] is “not bind WDR5”. The “binding to CRBN (ITC, in words)” value in data set [2] is “bind CRBN with a similar affinity as MS40”. In [6], the “IKZF1/IKZF3 degradation (immunoblot)” value was “induced degradation of IKZF1 and IKZF3”. For the same compound, the “PDX tumor growth compared to vehicle” value in data set [7] was “no detected inhibitory effects on PDX tumor growth”. Besides, the “detected concentrations in plasma and tumor samples post-treatment” value in data set [8] is on record as “higher than those of MS40”.
Consider `Cc1ncsc1-c1ccc(CNC(=O)[C@@H]2C[C@@H](O)CN2C(=O)[C@@H](NC(=O)CCCCCCCCCC(=O)NCCN2CCN(Cc3cccc(-c4ccc(N5CCN(C)CC5)c(NC(=O)c5c[nH]c(=O)cc5C(F)(F)F)c4)c3)CC2)C(C)(C)C)cc1` [MS169], for which the “binding to WDR5 (ITC, in words)” value in [1] was “comparable binding affinities to WDR5 and E3 ligase”. Moreover, in [9], the “binding to E3 ligase (ITC, in words)” value is “comparable binding affinities to WDR5 and E3 ligase”. The “IKZF1/IKZF3 degradation (immunoblot)” value in data set [6] is listed as “without affecting IKZF1/3”. Besides, the “PDX tumor growth compared to vehicle” value in data set [7] is “no detected inhibitory effects on PDX tumor growth”. In data set [8], the “detected concentrations in plasma and tumor samples post-treatment” value is listed as “higher than those of MS40”.
With `CN1CCN(c2ccc(-c3cccc(CN4CCOCC4)c3)cc2NC(=O)c2c[nH]c(=O)cc2C(F)(F)F)CC1` [OICR-9429], the “global H3K4me2 level” value in data set [3] is given as “but not OICR-9429 or MS40N1”.
Consider `Nc1cccc2c1C(=O)N(C1CCC(=O)NC1=O)C2=O` (stereo not shown) [pomalidomide], for which the “IKZF1/IKZF3 degradation (immunoblot)” value in data set [6] is recorded as “led to degradation of IKZF1/3”. Moreover, the “LIMD1 degradation (immunoblot)” value in data set [10] is recorded as “but not LIMD1”. Besides, the “global H3K4me2 level” value in [3] is reported as “did not affect global H3K4me2”. Moreover, the “anti-proliferative effect in BT549 and SUM149” value in data set [11] is “unaffected”. In addition, the Kd in data set [12] is 16 ± 4 µM.
